Among the data in PubChem BioAssay (NCI) are GI50 and TGI values, retold here.

Some test systems named below: MALME-3M melanoma; NCI-H23 lung; UACC-62 melanoma; UACC-257 melanoma; OVCAR-3 ovarian; MCF7 breast; SF-539 CNS; SN12C renal; COLO 205 colon; A498 renal.
Assay in all cases: NCI anticancer screen, dose series, 48 h

SMILES strings stand for the structures.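 Growth conditions: 96-well plates. Treatment: test compound, 48 hours, 5 concentrations. Analysis: linear interpolation between bracketing concentrations; unreached endpoints set to highest concentration. GI50: concentration for 50% inhibition of growth. TGI is the concentration that stops growth completely.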 Some results are limits rather than exact numbers.

Take `O=C(c1ccccc1)c1ccc(-c2ccc(O)cc2)cc1`: the GI50 with MALME-3M melanoma is 0.803 µM; with NCI-H23 lung it was 6.16 µM; in the assay with UACC-62 melanoma, 0.687 µM; in the assay with UACC-257 melanoma it was 16 µM; with OVCAR-3 ovarian, 7.59 µM; with MCF7 breast, 0.34 µM. Moreover, the GI50 in the assay with SF-539 CNS was 14.6 µM; in the assay on SN12C renal it was 20.2 µM; in the assay on COLO 205 colon, 19.4 µM; with A498 renal, 13 µM. The TGI was 34.9 µM in the assay on MALME-3M melanoma; 42.7 µM with NCI-H23 lung; 33.7 µM in the assay with UACC-62 melanoma; 66.5 µM in the assay on UACC-257 melanoma; 31.6 µM with OVCAR-3 ovarian; 25.2 µM in the assay with MCF7 breast. For the same molecule, the TGI in the assay on SF-539 CNS was 56.9 µM; in the assay on SN12C renal, over 100 µM; in the assay with COLO 205 colon it was 45.9 µM; in the assay on A498 renal it was over 58.9 µM.
Consider `Cn1ncc2cc(-c3cnc(N)c(Cl)c3N3CCC4(CCNC4=O)CC3)ccc21`, for which the GI50 with MALME-3M melanoma was 37.5 µM; with NCI-H23 lung, 46.7 µM; in the assay on UACC-62 melanoma, 30.7 µM; with UACC-257 melanoma, 31.2 µM; in the assay on OVCAR-3 ovarian, 42.9 µM; in the assay on MCF7 breast it was 24.6 µM. The GI50 was 14.1 µM in the assay with SF-539 CNS, 32.7 µM in the assay on SN12C renal, 11.9 µM in the assay on COLO 205 colon and 11.2 µM in the assay with A498 renal. For the same molecule, the TGI in the assay on MALME-3M melanoma was over 100 µM; with NCI-H23 lung it was over 100 µM; in the assay with UACC-62 melanoma it was over 100 µM; with UACC-257 melanoma, 66.1 µM; with OVCAR-3 ovarian it was over 100 µM; in the assay with MCF7 breast, over 100 µM. For the same molecule, the TGI was over 100 µM in the assay on SF-539 CNS, over 100 µM in the assay on SN12C renal, over 100 µM with COLO 205 colon and 32.4 µM in the assay on A498 renal.
In the case of `Cn1ncc2c(Nc3ccc(Br)cc3)nc(Nc3ccc(Br)cc3)nc21`, the GI50 with MALME-3M melanoma is 3.32 µM; with NCI-H23 lung, 3.63 µM; with UACC-62 melanoma, 2.32 µM; in the assay on UACC-257 melanoma, 5.32 µM; in the assay with OVCAR-3 ovarian, 3.95 µM; in the assay with MCF7 breast, 2.61 µM. Further, the GI50 with SF-539 CNS was 3.17 µM; in the assay on SN12C renal it was 3.28 µM; in the assay on COLO 205 colon, 1.65 µM; in the assay on A498 renal, 2.68 µM. Further, the TGI in the assay with MALME-3M melanoma was determined as 14.7 µM; in the assay with NCI-H23 lung, 16.2 µM; in the assay on UACC-62 melanoma, 6.82 µM; in the assay on UACC-257 melanoma, 18.8 µM; in the assay with OVCAR-3 ovarian, 12.3 µM; in the assay with MCF7 breast, 10.9 µM. For the same molecule, the TGI with SF-539 CNS is 10.8 µM; in the assay with SN12C renal it was 12.9 µM; in the assay with COLO 205 colon, 3.2 µM; in the assay with A498 renal it was 9.9 µM.
On to `CN(C(=O)c1ccc(F)cc1C(F)(F)F)C1CCN(c2nnc(-c3ccnn3C)c3ccccc23)CC1`, for which the GI50 in the assay on MALME-3M melanoma was 23.6 µM; in the assay with NCI-H23 lung it was 29.3 µM; in the assay on UACC-62 melanoma, 28.9 µM; in the assay on UACC-257 melanoma, 23.2 µM; in the assay with OVCAR-3 ovarian, 38.1 µM; in the assay with MCF7 breast, 24.2 µM. Besides, the GI50 in the assay on SF-539 CNS was over 100 µM; with SN12C renal, 51 µM; in the assay with COLO 205 colon it was 32.9 µM; with A498 renal, 54.8 µM. In addition, the TGI in the assay with MALME-3M melanoma, in the assay with NCI-H23 lung, with UACC-62 melanoma, in the assay with UACC-257 melanoma, in the assay on OVCAR-3 ovarian and in the assay on MCF7 breast was over 100 µM in each case. For the same molecule, the TGI in the assay on SF-539 CNS, in the assay with SN12C renal, in the assay with COLO 205 colon and in the assay on A498 renal was over 100 µM in each case.
`COC1=CC(c2ccc[nH]2)=N/C1=C\c1[nH]c(C)c(C(=O)CCC(=O)Oc2ccc3c(c2)CCC2C3CC[C@]3(C)C(=O)CC[C@@H]23)c1C` (stereo not given in full): the GI50 is 29.2 µM in the assay with MALME-3M melanoma; 9.75 µM in the assay with NCI-H23 lung; 3.71 µM in the assay with UACC-62 melanoma; 97.6 µM in the assay with UACC-257 melanoma; 17.5 µM in the assay on OVCAR-3 ovarian; 1.91 µM in the assay with MCF7 breast. Further, the GI50 with SF-539 CNS is 14.3 µM; in the assay on SN12C renal, 5.23 µM; in the assay with COLO 205 colon, 21.5 µM; in the assay on A498 renal, 7.94 µM. The TGI in the assay on MALME-3M melanoma is over 100 µM; in the assay with NCI-H23 lung it was over 100 µM; in the assay on UACC-62 melanoma, 17.9 µM; in the assay on UACC-257 melanoma, over 100 µM; with OVCAR-3 ovarian, over 100 µM; in the assay on MCF7 breast, over 49.3 µM. The TGI is over 100 µM with SF-539 CNS, over 100 µM in the assay on SN12C renal, over 100 µM with COLO 205 colon and 57.4 µM with A498 renal.
Turning to `COc1cc(-c2c3c(cn2S(=O)(=O)c2ccccc2)-c2nc(N)sc2CC3)cc(OC)c1OC`, the GI50 in the assay with MALME-3M melanoma was 0.449 µM; in the assay with NCI-H23 lung it was 4.29 µM; in the assay with UACC-62 melanoma, 0.729 µM; in the assay on UACC-257 melanoma, 10.3 µM; in the assay on OVCAR-3 ovarian it was 0.414 µM; in the assay with MCF7 breast, 0.381 µM. In addition, the GI50 in the assay with SF-539 CNS was 0.548 µM; with SN12C renal, 4.45 µM; in the assay on COLO 205 colon it was 1.14 µM; in the assay on A498 renal, 0.56 µM. The TGI was 38 µM with MALME-3M melanoma; over 100 µM in the assay with NCI-H23 lung; over 100 µM with UACC-62 melanoma; 60.1 µM in the assay with UACC-257 melanoma; 6.9 µM with OVCAR-3 ovarian; 21.4 µM in the assay with MCF7 breast. The TGI is 5.07 µM in the assay on SF-539 CNS, over 100 µM with SN12C renal, 3.53 µM with COLO 205 colon and 22.3 µM in the assay with A498 renal.
For the molecule `CO/N=C(\c1ccccc1)c1cnn(-c2ccccc2)c1N`, the GI50 in the assay on MALME-3M melanoma, in the assay on NCI-H23 lung, in the assay on UACC-62 melanoma, in the assay with UACC-257 melanoma, in the assay on OVCAR-3 ovarian and in the assay on MCF7 breast was over 25 µM throughout. Besides, the GI50 was over 25 µM in the assay on SF-539 CNS, over 25 µM in the assay with SN12C renal, over 25 µM in the assay with COLO 205 colon and over 16.8 µM with A498 renal. The TGI with MALME-3M melanoma, in the assay with NCI-H23 lung, in the assay with UACC-62 melanoma, with UACC-257 melanoma, with OVCAR-3 ovarian and in the assay on MCF7 breast was over 25 µM in each case. Moreover, the TGI with SF-539 CNS, in the assay with SN12C renal, with COLO 205 colon and in the assay on A498 renal was over 25 µM in each case.
In the case of `CC1(C)CCC(S(=O)(=O)c2ccc3c(c2)/C(=N\O)c2cc(S(=O)(=O)N4CCC(O)(c5cccc(C(F)(F)F)c5)CC4)ccc2-3)CC1`, the GI50 with MALME-3M melanoma was 0.0216 µM; in the assay with NCI-H23 lung, 0.118 µM; in the assay on UACC-62 melanoma, 0.0196 µM; with UACC-257 melanoma, 0.0665 µM; with OVCAR-3 ovarian, 0.0211 µM; with MCF7 breast, 0.0206 µM. The GI50 is 0.0204 µM with SF-539 CNS, 0.0612 µM in the assay with SN12C renal, 0.0208 µM in the assay on COLO 205 colon and 1.69 µM with A498 renal. The TGI in the assay with MALME-3M melanoma came out at 0.053 µM; in the assay with NCI-H23 lung it was 1.37 µM; in the assay with UACC-62 melanoma it was 0.0351 µM; in the assay with UACC-257 melanoma, 1.11 µM; in the assay on OVCAR-3 ovarian it was 0.0442 µM; in the assay with MCF7 breast, 0.0485 µM. For the same molecule, the TGI came to 0.0448 µM in the assay on SF-539 CNS, 2.2 µM in the assay on SN12C renal, 0.0455 µM in the assay on COLO 205 colon and 3.85 µM in the assay with A498 renal.
As to `O=C(NO)c1ccc(C(=O)NO)cc1`, the TGI with MALME-3M melanoma is 51.4 µM; in the assay on NCI-H23 lung, over 100 µM; with UACC-62 melanoma, over 100 µM; in the assay with UACC-257 melanoma, over 100 µM; with OVCAR-3 ovarian, over 100 µM; with MCF7 breast, over 100 µM. Also, the TGI with SF-539 CNS, with SN12C renal, with COLO 205 colon and in the assay on A498 renal was over 100 µM throughout.
For `CCCC[C@@H]1NC(=O)[C@H](CCCCN)NC(=O)[C@H](CCCNC(=N)N)NC(=O)[C@H](CC(C)C)NC(=O)[C@@H](NC(=O)[C@H](Cc2cccc(Cl)c2)NC(=O)[C@@H]2CCCN2C(=O)[C@@H](NC(C)=O)C(C)C)CCSSC[C@@H](C(=O)N[C@@H](CCCCN)C(=O)N2CCC[C@H]2C(=O)N2CCC[C@H]2C(=O)N[C@@H](CCC(=O)O)C(N)=O)NC(=O)[C@H](Cc2ccccc2)NC(=O)[C@H](CO)NC(=O)[C@H](C)NC(=O)[C@@H]2CCCN2C1=O`, the GI50 in the assay with MALME-3M melanoma, with NCI-H23 lung, with UACC-62 melanoma, with UACC-257 melanoma, with OVCAR-3 ovarian and with MCF7 breast was over 50 µM throughout. Moreover, the GI50 in the assay with SF-539 CNS, in the assay on SN12C renal, with COLO 205 colon and in the assay with A498 renal was over 50 µM in each case. In addition, the TGI in the assay with MALME-3M melanoma, in the assay with NCI-H23 lung, in the assay with UACC-62 melanoma, in the assay on UACC-257 melanoma, in the assay on OVCAR-3 ovarian and with MCF7 breast was over 50 µM in each case. Further, the TGI in the assay on SF-539 CNS, with SN12C renal, with COLO 205 colon and in the assay on A498 renal was over 50 µM in each case.
